# Assay results as given in patent US20040014777A1, “Remedies for retinal nerve diseases containing 1,2-ethanediol derivatives or salts thereof” (Toyama Chemical Co., LTD., priority 2000, published 2004).
# Assays:
# retinal ganglion cells [1] = test: Protective effect on retinal ganglion cells in a glaucoma model (India ink injection and angle photocoagulation); assay type: in vivo, Wistar white rats; details: T-588 100 mg/kg orally
# Text: 1. Protective Effect on Retinal Ganglion Cells in a Glaucoma Model
# Wistar white rats [male, body weight 290-310 g] were subjected to a general anesthesia by intraperitoneal injection of ketamine hydrochloride and xylazine hydrochloride. Subsequently, the rats were subjected to an instillation anesthesia with oxybuprocaine hydrochloride. After the measuring both the intraocular pressures with a pneumatonometer (Model Classic 30:Mentor, Norwell, Mass., U.S.A.), the anterior chamber of the right eye was punctured with a 30-gage needle to aspirate the aqueous humor, and then about 30 μL of 35% India ink was injected thereinto. […]
# Immediately after the coagulation, ophthalmoscopy was performed in all the animals in order to confirm the occlusion of retina central artery. Five days after the angle photocoagulation, the intraocular pressure was measured to confirm an elevation of the intraocular pressure in the right eye. […] From the fluorescent microscopic photographs, the number of labeled cell was counted by means of an image analyzer. The labeling rate of retinal ganglion cell was calculated as a ratio of the number of labeled ganglion cells in the right eye to the number of labeled ganglion cells in the control eye (left eye).
# On the eighth day from the angle photocoagulation, the number of alive retinal ganglion cells was counted and compared with that of a normal eye. […]
# retinal ganglion cells [2] = test: Protective effect on retinal ganglion cells in a retinal ischemia-reperfusion rat model; assay type: in vivo, SD rats; details: fourteen days after retinal ischemia-reperfusion, n=8, control group 40%
# Method: 2. Protective Effect on Retinal Ganglion Cells in a Retinal Ischemia-Reperfusion Rat Model
# As a retinal ischemia-reperfusion model, the manner in Steven Roth et al. (Experimental Eye Research, Vol. 65, Pages 771-779, 1997) was used with partial modification.
# As the test animals, SD rats (Japan SLC), 9 weeks old (body weight: about 300 g) were used. The operation was carried out under a halothane-anesthetized condition (introduction 5%, maintenance 2%). First, the animal was fixed on the table in a lateral decubitus, and the middle part of the skin between the external auditory canal and the external ocular angle was incised. After peeling off the temporal muscle from the cranium, the tissues surrounding the optic nerve were peeled off to expose the optic nerve. The retina central vessels were ligated together with the optic nerve with a 4-0 silk thread so as to avoid the damage of optic nerve. Thirty minutes after, the silk thread was released to reperfuse the blood flow. T-588 was orally administered 30 minutes before the ischemic treatment and just after the reperfusion. From the day next to the operation, T-588 was orally administered twice a day. […] The number of retinal ganglion cells was counted in the two region from the optic disk to 0.5 mm distant point and a ratio of the number of neurons in the ischemic eye to that in the normal eye was calculated on each individual. […]
# [3] = test system: neuron cell death caused by amyloid β-protein; details: Society for Neuroscience Abstracts Vol. 24, 1998; cited from earlier work
# nerve growth factor = details: WO96/12717; cited from earlier work
smiles,measurement,setting,value
"CCN(CC)CCOC[C@H](O)c1ccc2sccc2c1.Cl [T-588, (R)-1-(benzo[b]thiophen-5-yl)-2-[2-(N,N-diethylamino)ethoxy]ethanol hydrochloride]",survival rate of retinal ganglion cells (tested eye compared with normal eye),"retinal ganglion cells [1]; eighth day from angle photocoagulation, n=9, control group 78%",91%
same,influence on the elevation of intraocular pressure,retinal ganglion cells [1]; glaucoma model rats,no influence
same,survival rate of retinal ganglion cells (tested eye compared with normal eye),retinal ganglion cells [2]; T-588 10 mg/kg orally twice a day,57%
same,survival rate of retinal ganglion cells (tested eye compared with normal eye),retinal ganglion cells [2]; T-588 30 mg/kg orally twice a day,70%
same,effect against neuron cell death caused by amyloid β-protein,[3],protective effects
same,effect on nerve growth factor activity,nerve growth factor,nerve growth factor activity-improving effect
